# “And” between values parts separate entries of the source, which are not always exact repeats. Identical values can stand only once. Like-named read-outs stand apart in the source and are kept apart here.
# Assays:
# [1] = system: Candida albicans (ATCC 90028); assay: Antifungal growth inhibition (MIC, CO-ADD); format: cell-based; settings: C. albicans, inhibition ≥80%, two replicates per cell
# in vitro = format: cell-based, human; settings: human, CC50
# [2] = Measurement of the membrane boundary potential (K+-nonactin conductance); settings: 0.1 M KCl, pH 7.4, 50 mV
# Experimental: Measurement of the membrane boundary potential. Virtually solvent-free planar lipid bilayers were made of DPhPC or DPhPG as described above. After the membrane was completely formed and stabilized and its stability was assessed by applying voltages in a range from −200 to 200 mV with a 50 mV step for 5–10 min, stock solutions of nonactin A (7 μg/mL in ethanol) were added to the bathing solution (0.1 M KCl, 5 mM HEPES, pH 7.4) in both chamber compartments to obtain a final concentration ranging from 0.1 to 1 μM.
# Test derivatives (4, 20, 22) as 10 mg/mL solutions in ethanol were added to both compartments in a concentration range from 5 µg/mL to Cbr in increments of 25 µg/mL.
# The conductance of the bilayers was determined by measuring the membrane conductance (G) at a constant transmembrane voltage of 50 mV. In the subsequent calculations, the membrane conductance was assumed to be related to the membrane boundary potential (φb), the potential drop between the aqueous solution and the membrane hydrophobic core, by the Boltzmann distribution (1) Gm/Gm0=exp(eΔφb/kT) where Gm and Gm^0 are the steady-state membrane conductances induced by K^+-nonactin in the presence and absence of test compounds, respectively; e, k, and T have their usual meanings.
# The changes in the membrane boundary potential for the defined experimental conditions were averaged from 4 bilayers and presented as mean ± standard deviation (p ≤ 0.05).
# [3] = Calcein release from liposomes; settings: for τ (characteristic time of marker release): 5 μg/mL; for IFmax (maximum release of fluorescent marker from lipid vesicles): 5 μg/mL of test compound
# Experimental: Calcein release from liposomes. Small unilamellar vesicles (Ø100 nm) composed of 1,2-dioleoyl-sn-glycero-3-phosphocholine (DOPC) or 1,2-dioleoyl-sn-glycero-3-phospho-(1′-rac-glycerol) (DOPG) and loaded with the fluorescent dye calcein (35 mM) were obtained using a mini-extruder (Avanti Polar Lipids, Alabaster, AL, USA). At this concentration, calcein fluorescence inside the liposomes is self-quenched. The calcein that was not entrapped in the vesicles was removed by gel filtration with calcein-free solution (150 mM KCl, 10 mM HEPES, pH 7.4). An increase in the free calcein fluorescence in a surrounding medium is a measure of the disturbance of membrane integrity, in the absence and presence of test compounds (4, 20, 22). The control samples were not modified. Experimental samples were treated by 5 µg/mL of the compounds (4, 20, 22). Fluorescence of released calcein was determined on a Fluorat-02-Panorama spectrofluorimeter (Lumex, Saint-Petersburg, Russia) (excitation wavelength of 490 nm, emission wavelength of 520 nm). The detergent Triton X-100 (at a final concentration of 1%) was added at the end of experiments for complete disruption of liposomes (complete release of calcein from the vesicles).
# The relative intensity of calcein fluorescence (IF, %) was calculated as:(2) IF=I−I0/Imax/0.9−I0⋅100% where I and I0 are the calcein fluorescence intensities in the presence and absence of test compounds, respectively, and Imax is the maximal fluorescence after treatment of liposomes with Triton X-100 (a factor of 0.9 was introduced to account for sample dilution by Triton X-100).
# [4] = system: Cryptococcus neoformans (ATCC 208821); assay: Antifungal growth inhibition (MIC, CO-ADD); settings: inhibition ≥70%, two replicates per cell
# Experimental: Antimicrobial, cytotoxicity, and hemolytic activity screening of the synthesized derivatives was carried out in the CO-ADD (The Community for Antimicrobial Drug Discovery) (http://www.co-add.org, accessed on 24 November 2020) and included analysis for antibacterial properties, cytotoxicity, and hemolytic activity.
# The hit confirmation test included five bacteria, Escherichia coli (ATCC 25922), Klebsiella pneumoniae (ATCC 700603), Acinetobacter baumannii (ATCC 19606), Pseudomonas aeruginosa (ATCC 27853), and Staphylococcus aureus (ATCC 43300), and two fungi, Candida albicans (ATCC 90028) and Cryptococcus neoformans (ATCC 208821). […] The compounds were also screened for hemolysis of human red blood cells (human whole blood, strain ARCBS 5400 00150).
# Samples were prepared in DMSO and water to a final testing concentration of 32 µg/mL or 20 µM (unless otherwise indicated in the data sheet) and serially diluted twofold up to 8 times. Each sample concentration was prepared in 384-well plates: non-binding surface plate (NBS; Corning 3640) for each bacterial/fungal strain, tissue-culture treated (TC-treated; Corning 3712/3764) black for mammalian cell types and polypropylene 384-well plates (PP; Corning 3657) for hemolysis assays. The final DMSO concentration was maintained to a maximum of 0.5%. All sample preparation procedures were performed using liquid-handling robots. All screening was performed as two replica (n = 2), with both replicas on different assay plates, but from single plating and performed in a single screening experiment (microbial incubation). In addition, two values are used as quality controls for individual plates: Z′-Factor [1 − (3* (sd(NegCtrl) + sd(PosCtrl))/(average(PosCtrl)-average(NegCtrl)))] and standard antibiotic controls at different concentrations (>MIC and <MIC).
# Fungi strains were cultured for 3 days on yeast extract-peptone dextrose (YPD) agar at 30 °C. A yeast suspension of 1 × 10^6 to 5 × 10^6 CFU/mL (as determined by OD530) was prepared from five colonies. The suspension was subsequently diluted and added to each well containing a test compound, giving a final cell density of fungi suspension of 2.5 × 10^3 CFU/mL and a total volume of 50 µL. All plates were covered and incubated at 35 °C for 36 h without shaking.
# The absorbance was measured using a Biotek Multiflo Synergy HTX plate reader. In both cases, the percentage of growth inhibition was calculated for each well, using the negative control (media only) and positive control (fungi without inhibitors) in the same plate. […] In addition, the maximal percentage of growth inhibition is reported as DMax, indicating any compounds with marginal activity.
# Fluconazole was used as a positive fungal inhibitor standard for C. albicans and C. neoformans. […] The quality control (QC) of the assays was performed using Z′-factors calculated from the negative (media only) and positive controls (bacterial, fungal, or cell culture without inhibitor) and the standards.
# [5] = Candida albicans, ATCC90028, read-out: MIC
Compound,MIC [1] [µg/mL],"MIC [1, 5] [µg/mL]",CC50 at 20 h (in vitro) [µg/mL],−Δφb(max) (maximum decrease in the membrane boundary potential) ([2]; DPhPC) [mV],−Δφb(max) (maximum decrease in the membrane boundary potential) ([2]; DPhPG) [mV],τ (characteristic time of marker release) ([3]; DOPC) [min],IFmax (maximum release of fluorescent marker from lipid vesicles) ([3]; DOPC) [%],τ (characteristic time of marker release) ([3]; DOPG) [min],IFmax (maximum release of fluorescent marker from lipid vesicles) ([3]; DOPG) [%],MIC ([4]; C. neoformans),"MIC ([4]; Cryptococcus neoformans, ATCC208821, C. neoformans) [µg/mL]"
"COC(=O)/C(CCC=C(C)C)=C1\[C@@H](OC(C)=O)C[C@@]2(C)[C@@H]1C[C@@H](O)[C@@H]1[C@@]3(C)CC[C@H](NCCCNCCCCN)[C@@H](C)C3CC[C@@]12C (stereo partly drawn) [Compound 20, Methyl (2Z)-2-[(3β,4α,8α,11α,14β,16β)-16-(acetyloxy)-3-({3-[(4aminobutyl)amino]propyl}amino)-11-hydroxy-4,8,10,14-tetramethylgonan-17-ylidene]-6-methylhept-5-enoate]",32,32,15.4,29 ± 7,11 ± 4,0.5 ± 0.2,88 ± 3,1.0 ± 0.1,87 ± 4,–,–
"COC(=O)/C(CCC=C(C)C)=C1\[C@@H](OC(C)=O)C[C@@]2(C)[C@@H]1C[C@@H](O)[C@@H]1[C@@]3(C)CC[C@H](NCCCNCCCCNCCCN)[C@@H](C)C3CC[C@@]12C (stereo partly drawn) [Compound 22, Methyl (2Z)-2-[(3β,4α,8α,11α,14β,16β)-16-(acetyloxy)-3-{[3-({4-[(3-aminopropyl)amino]butyl}amino)propyl]amino}-11-hydroxy-4,8,10,14-tetramethylgonan-17-ylidene]-6-methylhept-5-enoate]",32,32,18.8,40 ± 8,23 ± 8,0.7 ± 0.2,95 ± 2,9.8 ± 0.4,83 ± 3,1.0 µg/mL and 2.0 µg/mL,1

# Reference: PMC10056636, “3-Amino-Substituted Analogues of Fusidic Acid as Membrane-Active Antibacterial Compounds” (Membranes, 2023)
